This note sets out measurements from patent publication US7994140B2, “Classes of compounds that interact with GPCRs” (Alchemia Limited, priority 2002, dated 2011).

One test has as its target T1, MC4 (Homo sapiens, UniProt P32245).
T1 construct: purchased Perkin Elmer BioSignal; host or cells: HEK 293
The test can be described thus: GPCR radioligand binding (RLB) assay, melanocortin MC4, [125I]NDP-αMSH. The essentials: (§1)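 Competition binding against radioligand ([125I]NDP-αMSH for MC4, [125I]SST-14 for SST5) on membranes of HEK 293 cells carrying the human receptor; buffer and incubation time optimized per receptor. Filtration through 0.5% PEI-treated glass fiber, washing, then scintillation counting.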

For another test, the target named is T2, SST5 (Homo sapiens, UniProt P35346).
T2 construct: purchased Perkin Elmer BioSignal; host or cells: HEK 293
T2 sequence (P35346 whole entry): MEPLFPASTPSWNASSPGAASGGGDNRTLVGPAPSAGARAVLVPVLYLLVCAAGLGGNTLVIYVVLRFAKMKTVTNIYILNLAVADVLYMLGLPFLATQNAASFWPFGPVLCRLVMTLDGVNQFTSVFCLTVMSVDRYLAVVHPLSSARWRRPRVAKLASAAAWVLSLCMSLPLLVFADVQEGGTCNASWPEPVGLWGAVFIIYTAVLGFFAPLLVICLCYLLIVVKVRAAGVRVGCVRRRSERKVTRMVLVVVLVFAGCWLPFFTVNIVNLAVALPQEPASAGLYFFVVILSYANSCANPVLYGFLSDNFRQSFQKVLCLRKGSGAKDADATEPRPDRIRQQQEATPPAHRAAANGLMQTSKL
The test can be described thus: GPCR radioligand binding (RLB) assay, somatostatin SST5, [125I]SST-14. The settings on record: for SST5 inhibition at 10 micromolar: 10 micromolar compound, recombinant human receptor membranes (HEK 293); for SSTS inhibition at 10 micromolar: Example Library 4. A digest of the protocol:
as §1

Setting [1] is: 10 micromolar compound, recombinant human receptor membranes (HEK 293).
The mark [2] stands for this setting: 10 micromolar, Example Library 4.

T1 sequence (P32245 whole entry): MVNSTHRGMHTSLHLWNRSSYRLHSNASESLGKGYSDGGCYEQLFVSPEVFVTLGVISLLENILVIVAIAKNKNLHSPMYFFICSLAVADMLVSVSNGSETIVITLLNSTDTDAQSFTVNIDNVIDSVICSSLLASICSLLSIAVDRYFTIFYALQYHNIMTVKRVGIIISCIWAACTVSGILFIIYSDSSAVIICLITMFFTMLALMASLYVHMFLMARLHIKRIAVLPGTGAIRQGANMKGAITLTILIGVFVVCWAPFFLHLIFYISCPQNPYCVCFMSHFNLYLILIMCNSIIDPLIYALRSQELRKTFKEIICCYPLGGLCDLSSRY

For the molecule `CSC1OC(COCc2ccc3ccccc3c2)C(O)C(OCc2ccc(-c3ccccc3)cc2)C1NC(=O)CCCNC(=N)N` (centres unmarked) [Compound 190], the “MC4 inhibition at 10 micromolar” value at MC4 (setting [1]) is on record as “+ (Indicates inhibition greater than . . . 50%)”. Besides, at SST5, the “SST5 inhibition at 10 micromolar” value is “+ (Indicates inhibition greater than . . . 50%)”.

With `CSC1OC(COCc2ccccc2)C(O)C(OCc2ccc3ccccc3c2)C1NC(=O)CN` (centres unmarked) [Compound 191], the “MC4 inhibition at 10 micromolar” value at MC4 (setting [1]) was “+ (Indicates inhibition greater than . . . 50%)”. At SST5, the “SST5 inhibition at 10 micromolar” value is recorded as “+ (Indicates inhibition greater than . . . 50%)”.

For `CSC1OC(COCc2ccccc2)C(O)C(OCc2ccc3ccccc3c2)C1NC(=O)CNC(=N)N` (centres unmarked) [Compound 192], on MC4 (setting [1]), the “MC4 inhibition at 10 micromolar” value is reported as “+ (Indicates inhibition greater than . . . 50%)”. The “SST5 inhibition at 10 micromolar” value at SST5 was “+ (Indicates inhibition greater than . . . 50%)”.

`CSC1OC(COCc2ccccc2)C(O)C(OCc2ccc3ccccc3c2)C1NC(=O)CCNC(=N)N` (centres unmarked) [Compound 194]: the “MC4 inhibition at 10 micromolar” value on MC4 (setting [1]) is listed as “+ (Indicates inhibition greater than . . . 50%)”. For the same molecule, the “SST5 inhibition at 10 micromolar” value at SST5 is “+ (Indicates inhibition greater than . . . 50%)”.

Regarding `CSC1OC(COCc2ccccc2)C(O)C(OCc2ccc3ccccc3c2)C1NC(=O)CCCN` (centres unmarked) [Compound 195], the “MC4 inhibition at 10 micromolar” value at MC4 (setting [1]) was “+ (Indicates inhibition greater than . . . 50%)”. For the same molecule, on SST5, the “SST5 inhibition at 10 micromolar” value is given as “+ (Indicates inhibition greater than . . . 50%)”.

Turning to `CSC1OC(COCc2ccccc2)C(O)C(OCc2ccc3ccccc3c2)C1NC(=O)CCCNC(=N)N` (centres unmarked) [Compound 196], at MC4 (setting [1]), the “MC4 inhibition at 10 micromolar” value is recorded as “+ (Indicates inhibition greater than . . . 50%)”. At SST5, the “SST5 inhibition at 10 micromolar” value is “+ (Indicates inhibition greater than . . . 50%)”.

As for `CSC1OC(COCc2ccc(Cl)cc2)C(O)C(OCc2ccc3ccccc3c2)C1NC(=O)CN` (centres unmarked) [Compound 197], the “MC4 inhibition at 10 micromolar” value on MC4 (setting [1]) is on record as “+ (Indicates inhibition greater than . . . 50%)”. Moreover, at SST5, the “SST5 inhibition at 10 micromolar” value was “+ (Indicates inhibition greater than . . . 50%)”.

On to `CSC1OC(COCc2ccc(Cl)cc2)C(O)C(OCc2ccc3ccccc3c2)C1NC(=O)CNC(=N)N` (centres unmarked) [Compound 198], for which, at MC4 (setting [1]), the “MC4 inhibition at 10 micromolar” value is “+ (Indicates inhibition greater than . . . 50%)”. The “SST5 inhibition at 10 micromolar” value at SST5 is listed as “+ (Indicates inhibition greater than . . . 50%)”.

On to `CSC1OC(COCc2ccc(Cl)cc2)C(O)C(OCc2ccc3ccccc3c2)C1NC(=O)CCN` (centres unmarked) [Compound 199], for which, at MC4 (setting [1]), the “MC4 inhibition at 10 micromolar” value is given as “+ (Indicates inhibition greater than . . . 50%)”. The “SST5 inhibition at 10 micromolar” value on SST5 is on record as “+ (Indicates inhibition greater than . . . 50%)”.

Take `CSC1OC(COCc2ccc(Cl)cc2)C(O)C(OCc2ccc3ccccc3c2)C1NC(=O)CCNC(=N)N` (centres unmarked) [Compound 200]: at MC4 (setting [1]), the “MC4 inhibition at 10 micromolar” value is listed as “+ (Indicates inhibition greater than . . . 50%)”. In addition, the “SST5 inhibition at 10 micromolar” value at SST5 is “+ (Indicates inhibition greater than . . . 50%)”.

For `CSC1OC(COCc2ccc(Cl)cc2)C(O)C(OCc2ccc3ccccc3c2)C1NC(=O)CCCN` (centres unmarked) [Compound 201], the “MC4 inhibition at 10 micromolar” value at MC4 (setting [1]) is “+ (Indicates inhibition greater than . . . 50%)”. The “SST5 inhibition at 10 micromolar” value at SST5 is “+ (Indicates inhibition greater than . . . 50%)”.

Take `CSC1OC(COCc2ccc(Cl)cc2)C(O)C(OCc2ccc3ccccc3c2)C1NC(=O)CCCNC(=N)N` (centres unmarked) [Compound 202]: the “MC4 inhibition at 10 micromolar” value on MC4 (setting [1]) is on record as “+ (Indicates inhibition greater than . . . 50%)”. At SST5, the “SST5 inhibition at 10 micromolar” value is reported as “+ (Indicates inhibition greater than . . . 50%)”.

As for `CSC1OC(COCc2ccc(-c3ccccc3)cc2)C(O)C(OCc2ccc3ccccc3c2)C1NC(=O)CN` (centres unmarked) [Compound 203], the “MC4 inhibition at 10 micromolar” value at MC4 (setting [1]) is listed as “+ (Indicates inhibition greater than . . . 50%)”. Also, the “SST5 inhibition at 10 micromolar” value on SST5 is on record as “+ (Indicates inhibition greater than . . . 50%)”.

With `CSC1OC(COCc2ccc(-c3ccccc3)cc2)C(O)C(OCc2ccc3ccccc3c2)C1NC(=O)CNC(=N)N` (centres unmarked) [Compound 204], at MC4 (setting [1]), the “MC4 inhibition at 10 micromolar” value is given as “+ (Indicates inhibition greater than . . . 50%)”. Also, on SST5, the “SST5 inhibition at 10 micromolar” value is recorded as “+ (Indicates inhibition greater than . . . 50%)”.

With `CSC1OC(COCc2ccc(-c3ccccc3)cc2)C(O)C(OCc2ccc3ccccc3c2)C1NC(=O)CCN` (centres unmarked) [Compound 205], the “MC4 inhibition at 10 micromolar” value at MC4 (setting [1]) is on record as “+ (Indicates inhibition greater than . . . 50%)”. In addition, the “SST5 inhibition at 10 micromolar” value at SST5 is “+ (Indicates inhibition greater than . . . 50%)”.

For the molecule `CSC1OC(COCc2ccc(-c3ccccc3)cc2)C(O)C(OCc2ccc3ccccc3c2)C1NC(=O)CCNC(=N)N` (centres unmarked) [Compound 206], on MC4 (setting [1]), the “MC4 inhibition at 10 micromolar” value is listed as “+ (Indicates inhibition greater than . . . 50%)”. On SST5, the “SST5 inhibition at 10 micromolar” value was “+ (Indicates inhibition greater than . . . 50%)”.

Consider `CSC1OC(COCc2ccc(-c3ccccc3)cc2)C(O)C(OCc2ccc3ccccc3c2)C1NC(=O)CCCN` (centres unmarked) [Compound 207], for which, on MC4 (setting [1]), the “MC4 inhibition at 10 micromolar” value is “+ (Indicates inhibition greater than . . . 50%)”. Further, on SST5, the “SST5 inhibition at 10 micromolar” value was “+ (Indicates inhibition greater than . . . 50%)”.

For `CSC1OC(COCc2ccc(-c3ccccc3)cc2)C(O)C(OCc2ccc3ccccc3c2)C1NC(=O)CCCNC(=N)N` (centres unmarked) [Compound 208], the “MC4 inhibition at 10 micromolar” value on MC4 (setting [1]) was “+ (Indicates inhibition greater than . . . 50%)”. Moreover, the “SST5 inhibition at 10 micromolar” value on SST5 was “+ (Indicates inhibition greater than . . . 50%)”.

On to `CSC1OC(COCc2ccc3ccccc3c2)C(O)C(OCc2ccc3ccccc3c2)C1NC(=O)CN` (centres unmarked) [Compound 209], for which the “MC4 inhibition at 10 micromolar” value on MC4 (setting [1]) is reported as “+ (Indicates inhibition greater than . . . 50%)”. For the same molecule, the “SST5 inhibition at 10 micromolar” value at SST5 is given as “+ (Indicates inhibition greater than . . . 50%)”.

For the molecule `CSC1OC(COCc2ccc3ccccc3c2)C(O)C(OCc2ccc3ccccc3c2)C1NC(=O)CNC(=N)N` (centres unmarked) [Compound 210], at MC4 (setting [1]), the “MC4 inhibition at 10 micromolar” value is “+ (Indicates inhibition greater than . . . 50%)”. The “SST5 inhibition at 10 micromolar” value at SST5 was “+ (Indicates inhibition greater than . . . 50%)”.

Consider `CSC1OC(COCc2ccc3ccccc3c2)C(O)C(OCc2ccc3ccccc3c2)C1NC(=O)CCN` (centres unmarked) [Compound 211], for which, on MC4 (setting [1]), the “MC4 inhibition at 10 micromolar” value is reported as “+ (Indicates inhibition greater than . . . 50%)”. The “SST5 inhibition at 10 micromolar” value at SST5 is recorded as “+ (Indicates inhibition greater than . . . 50%)”.

With `CSC1OC(COCc2ccc3ccccc3c2)C(O)C(OCc2ccc3ccccc3c2)C1NC(=O)CCNC(=N)N` (centres unmarked) [Compound 212], the “MC4 inhibition at 10 micromolar” value at MC4 (setting [1]) is given as “+ (Indicates inhibition greater than . . . 50%)”. In addition, on SST5, the “SST5 inhibition at 10 micromolar” value is listed as “+ (Indicates inhibition greater than . . . 50%)”.

For the molecule `COCC1OC(OCc2ccccc2)C(NC(=O)CNC(=N)N)C(OCc2ccccc2)C1O` (centres unmarked) [Compound 214], at MC4 (setting [2]), the “MC4 inhibition at 10 micromolar” value is on record as “+ (Indicates inhibition greater than . . . 50%)”. For the same molecule, at SST5, the “SSTS inhibition at 10 micromolar” value is listed as “+ (Indicates inhibition greater than . . . 50%)”.

With `COCC1OC(OCc2ccccc2)C(NC(=O)CCNC(=N)N)C(OCc2ccccc2)C1O` (centres unmarked) [Compound 216], the “MC4 inhibition at 10 micromolar” value at MC4 (setting [2]) is on record as “+ (Indicates inhibition greater than . . . 50%)”. The “SSTS inhibition at 10 micromolar” value at SST5 is recorded as “+ (Indicates inhibition greater than . . . 50%)”.

For `COCC1OC(OCc2ccccc2)C(NC(=O)CCCNC(=N)N)C(OCc2ccccc2)C1O` (centres unmarked) [Compound 218], the “MC4 inhibition at 10 micromolar” value on MC4 (setting [2]) is “+ (Indicates inhibition greater than . . . 50%)”. For the same molecule, the “SSTS inhibition at 10 micromolar” value on SST5 is recorded as “+ (Indicates inhibition greater than . . . 50%)”.
